Data published in PubChem BioAssay AID2060614 (Molecular Pharmacology Branch, DTP, NCI, 2025).
Where “and” joins values, the source holds several entries; their conditions need not be identical. Identical values can stand only once.

Tested on: 598228-144-R-J1-PDC complex spheroids, viability
Assay: Anticancer human tumor 598228-144-R-J1-PDC patient-derived serous endometrial adenocarcinoma cell line growth inhibition [CLK]
Settings: for viability, T/C: stronger effect = lower value
Summary of the method: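 Patient-derived tumor cells grown as complex spheroids with HUVEC endothelial cells and mesenchymal stem cells, treated with drug combinations. Concentrations descend in half-log steps from near clinical Cmax, or from 10 microM if Cmax unknown.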

[1] = curve of first compound, second compound 0.0316 µM
[2] = curve of first compound, second compound 0.1 µM
[3] = curve of first compound, second compound 0.316 µM
[4] = curve of first compound, second compound 1 µM
[5] = curve of first compound, second compound 3.16 µM
[6] = curve of first compound, second compound 10 µM
[7] = second compound 0.0316 µM, first compound 0.0316 µM
[8] = second compound 0.0316 µM, first compound 0.1 µM
[9] = second compound 0.0316 µM, first compound 0.316 µM
[10] = second compound 0.0316 µM, first compound 1 µM
[11] = second compound 0.0316 µM, first compound 3.16 µM
[12] = second compound 0.0316 µM, first compound 10 µM
[13] = second compound 0.1 µM, first compound 0.0316 µM
[14] = second compound 0.1 µM, first compound 0.1 µM
[15] = second compound 0.1 µM, first compound 0.316 µM
[16] = second compound 0.1 µM, first compound 1 µM
[17] = second compound 0.1 µM, first compound 3.16 µM
[18] = second compound 0.1 µM, first compound 10 µM
[19] = second compound 0.316 µM, first compound 0.0316 µM
[20] = second compound 0.316 µM, first compound 0.1 µM
[21] = second compound 0.316 µM, first compound 0.316 µM
[22] = second compound 0.316 µM, first compound 1 µM
[23] = second compound 0.316 µM, first compound 3.16 µM
[24] = second compound 0.316 µM, first compound 10 µM
[25] = second compound 1 µM, first compound 0.0316 µM
[26] = second compound 1 µM, first compound 0.1 µM
[27] = second compound 1 µM, first compound 0.316 µM
[28] = second compound 1 µM, first compound 1 µM
[29] = second compound 1 µM, first compound 3.16 µM
[30] = second compound 1 µM, first compound 10 µM
[31] = second compound 3.16 µM, first compound 0.0316 µM
[32] = second compound 3.16 µM, first compound 0.1 µM
[33] = second compound 3.16 µM, first compound 0.316 µM
[34] = second compound 3.16 µM, first compound 1 µM
[35] = second compound 3.16 µM, first compound 3.16 µM
[36] = second compound 3.16 µM, first compound 10 µM
[37] = second compound 10 µM, first compound 0.0316 µM
[38] = second compound 10 µM, first compound 0.1 µM
[39] = second compound 10 µM, first compound 0.316 µM
[40] = second compound 10 µM, first compound 1 µM
[41] = second compound 10 µM, first compound 3.16 µM
[42] = second compound 10 µM, first compound 10 µM
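Note: spheroids exposed to compounds for seven days before readout.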
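Throughout, for viability, T/C: 100% = DMSO vehicle control wells.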

CC(Nc1ccc2c(c1)OCCn1cc(N3C(=O)OCC3C(F)F)nc1-2)C(N)=O (stereo not drawn) + CN1CCN(c2cc(C(=O)Nc3cc4cc(-c5cnn(C)c5)ccc4cn3)ccn2)CC1
IC50 [1]: 885 nM | IC50 [2]: 271 nM | IC50 [3]: < 31.6 nM | IC50 [4]: < 31.6 nM | IC50 [5]: < 31.6 nM | IC50 [6]: < 31.6 nM | viability, T/C [7]: 97.7% | viability, T/C [8]: 66.2% | viability, T/C [9]: 67% | viability, T/C [10]: 47.1% | viability, T/C [11]: 40.3% | viability, T/C [12]: 24.4% | viability, T/C [13]: 87.9% | viability, T/C [14]: 64.3% | viability, T/C [15]: 44.9% | viability, T/C [16]: 38.6% | viability, T/C [17]: 26.5% | viability, T/C [18]: 18.3% | viability, T/C [19]: 12.3% | viability, T/C [20]: 9.13% | viability, T/C [21]: 10.7% | viability, T/C [22]: 6.85% | viability, T/C [23]: 4.58% | viability, T/C [24]: 7.75% | viability, T/C [25]: 1.13% | viability, T/C [26]: 0.87% | viability, T/C [27]: 2.39% | viability, T/C [28]: 0.6% | viability, T/C [29]: 0.73% | viability, T/C [30]: 0.42% | viability, T/C [31]: 1.56% | viability, T/C [32]: 1.01% | viability, T/C [33]: 0.62% | viability, T/C [34]: 0.69% | viability, T/C [35]: 1.66% | viability, T/C [36]: 1.62% | viability, T/C [37]: 0.62% | viability, T/C [38]: 0.46% | viability, T/C [39]: 1.49% | viability, T/C [40]: 0.44% | viability, T/C [41]: 4.05% | viability, T/C [42]: 2.58%

CC(=O)O[C@H]1C(=O)[C@@]2(C)[C@H]([C@H](OC(=O)c3ccccc3)[C@]3(O)C[C@H](OC(=O)[C@H](O)[C@@H](NC(=O)c4ccccc4)c4ccccc4)C(C)=C1C3(C)C)[C@]1(OC(C)=O)CO[C@@H]1C[C@@H]2O
viability, T/C (compound 0.0316 µM): 35.4% and 37% | viability, T/C (compound 0.1 µM): 33.6% and 37% | viability, T/C (compound 0.316 µM): 31% and 30.4% | viability, T/C (compound 1 µM): 25.1% and 34.2% | viability, T/C (compound 3.16 µM): 32.1% and 36.1% | viability, T/C (compound 10 µM): 32.5% and 47.5% | IC50 (curve of compound): < 31.6 nM

COC1C=CCC(C)C(C)S(=O)(=O)NC(=O)c2ccc3c(c2)N(CC2CCC21)CC1(CCCc2cc(Cl)ccc21)CO3 (stereo not drawn) + CNC(=O)c1ccc(Nc2nc(OC3CCCC3)c3c(-c4ccc5nc(C)oc5c4)c[nH]c3n2)c(OC)c1
IC50 [1]: 3220 nM | IC50 [2]: 2590 nM | IC50 [3]: 1130 nM | IC50 [4]: 2720 nM | IC50 [5]: 2010 nM | IC50 [6]: 2810 nM | viability, T/C [7]: 111% | viability, T/C [8]: 108% | viability, T/C [9]: 81.7% | viability, T/C [10]: 69.3% | viability, T/C [11]: 54.9% | viability, T/C [12]: 25.3% | viability, T/C [13]: 105% | viability, T/C [14]: 96.9% | viability, T/C [15]: 61.7% | viability, T/C [16]: 70.6% | viability, T/C [17]: 59.6% | viability, T/C [18]: 22.9% | viability, T/C [19]: 102% | viability, T/C [20]: 91.1% | viability, T/C [21]: 60.5% | viability, T/C [22]: 53.9% | viability, T/C [23]: 42.5% | viability, T/C [24]: 31.5% | viability, T/C [25]: 99% | viability, T/C [26]: 82.8% | viability, T/C [27]: 65.9% | viability, T/C [28]: 57.8% | viability, T/C [29]: 55.5% | viability, T/C [30]: 37.2% | viability, T/C [31]: 92.4% | viability, T/C [32]: 78.8% | viability, T/C [33]: 67.3% | viability, T/C [34]: 54.9% | viability, T/C [35]: 55.3% | viability, T/C [36]: 25.1% | viability, T/C [37]: 86.5% | viability, T/C [38]: 83.8% | viability, T/C [39]: 67.2% | viability, T/C [40]: 51.9% | viability, T/C [41]: 58.3% | viability, T/C [42]: 35.4%

C=CC(=O)Nc1cc(Nc2nccc(-c3cn(C)c4ccccc34)n2)c(OC)cc1N(C)CCN(C)C + CNC(=O)c1ccc(Nc2nc(OC3CCCC3)c3c(-c4ccc5nc(C)oc5c4)c[nH]c3n2)c(OC)c1
IC50 [1]: > 300 nM | IC50 [2]: > 300 nM | IC50 [3]: > 300 nM | IC50 [4]: > 300 nM | IC50 [5]: > 300 nM | IC50 [6]: > 300 nM | viability, T/C (second compound 0.0316 µM, first compound 0.000949 µM): 124% | viability, T/C (second compound 0.0316 µM, first compound 0.003 µM): 113% | viability, T/C (second compound 0.0316 µM, first compound 0.00949 µM): 107% | viability, T/C (second compound 0.0316 µM, first compound 0.03 µM): 115% | viability, T/C (second compound 0.0316 µM, first compound 0.0949 µM): 101% | viability, T/C (second compound 0.0316 µM, first compound 0.3 µM): 105% | viability, T/C (second compound 0.1 µM, first compound 0.000949 µM): 120% | viability, T/C (second compound 0.1 µM, first compound 0.003 µM): 103% | viability, T/C (second compound 0.1 µM, first compound 0.00949 µM): 104% | viability, T/C (second compound 0.1 µM, first compound 0.03 µM): 104% | viability, T/C (second compound 0.1 µM, first compound 0.0949 µM): 103% | viability, T/C (second compound 0.1 µM, first compound 0.3 µM): 78.3% | viability, T/C (second compound 0.316 µM, first compound 0.000949 µM): 112% | viability, T/C (second compound 0.316 µM, first compound 0.003 µM): 109% | viability, T/C (second compound 0.316 µM, first compound 0.00949 µM): 120% | viability, T/C (second compound 0.316 µM, first compound 0.03 µM): 93.5% | viability, T/C (second compound 0.316 µM, first compound 0.0949 µM): 96.5% | viability, T/C (second compound 0.316 µM, first compound 0.3 µM): 77.7% | viability, T/C (second compound 1 µM, first compound 0.000949 µM): 104% | viability, T/C (second compound 1 µM, first compound 0.003 µM): 90.3% | viability, T/C (second compound 1 µM, first compound 0.00949 µM): 90.5% | viability, T/C (second compound 1 µM, first compound 0.03 µM): 99% | viability, T/C (second compound 1 µM, first compound 0.0949 µM): 91.2% | viability, T/C (second compound 1 µM, first compound 0.3 µM): 94.1% | viability, T/C (second compound 3.16 µM, first compound 0.000949 µM): 101% | viability, T/C (second compound 3.16 µM, first compound 0.003 µM): 102% | viability, T/C (second compound 3.16 µM, first compound 0.00949 µM): 80.9% | viability, T/C (second compound 3.16 µM, first compound 0.03 µM): 87.6% | viability, T/C (second compound 3.16 µM, first compound 0.0949 µM): 82.7% | viability, T/C (second compound 3.16 µM, first compound 0.3 µM): 62.3% | viability, T/C (second compound 10 µM, first compound 0.000949 µM): 86.5% | viability, T/C (second compound 10 µM, first compound 0.003 µM): 86.4% | viability, T/C (second compound 10 µM, first compound 0.00949 µM): 86.3% | viability, T/C (second compound 10 µM, first compound 0.03 µM): 73.1% | viability, T/C (second compound 10 µM, first compound 0.0949 µM): 77.5% | viability, T/C (second compound 10 µM, first compound 0.3 µM): 60.7%
